Results on 1 molecule are retold here after patent US20190112580A1, “METHODS FOR TREATING CO[…] AND RELATED CULTURED CELLS” (priority 2017, published 2019).

In one experiment the test system is ITGB1D. Nature of the experiment: ITGB1D protein quantification by Western blotting. It is filed as cell-based, human. The note with it: 5 μM applied before differentiation; CP cultures; 48 hours of differentiation in low serum medium. The method, then:
After separation, proteins were transferred to 0.45 μm nitrocellulose membrane in a Tris-glycine buffer complemented with 20% methanol. To visualize bands and detect transfer efficiency, membranes were stained with Ponceau S. Membranes were then blocked in a buffer containing 10 mM Tris, 0.15 M NaCl, 0.1% Tween-20 and 1% BSA and incubated with a desired primary antibody (typically 1:500 to 1:1000 dilution) overnight at 4° C. After washing, membranes were incubated with peroxidase-conjugated secondary antibodies (typically at a 1:1000 dilution) for 1 hour at room temperature (Jackson ImmunoResearch Laboratories). Bandscan was identified using chemiluminescence (ECL). Bands also were analyzed by densitometry on a PXi imager (Syngene) and values expressed as arbitrary values of protein levels, normalized either by total proteins transferred on nitrocellulose membrane (as visualized with Ponceau S) or by another reference protein detected by Western blotting.
To test for protein expression levels as shown in FIG. 3A to 3E and FIGS. 4D and 4E, Western blotting was used. […]

In experiment [1] the test system is CpG island located in the promoter region of the human ITGB1 gene. Nature of the experiment: Promoter methylation PCR of ITGB1 CpG island. It is filed as cell-based. The note with it: 5 μM, 24-hour treatment in proliferation medium before differentiation.
Description: Myoblast cell preparations from CP and TD study subjects were exposed to 5 μM of the DNA methyltransferase inhibitor 5-AZA in proliferation medium. 5-AZA was introduced while the myoblast cell preparations were being developed in the high-serum medium, once the myoblast cell preparations were at about 70% cell confluence by visual inspection. The myoblast cell preparations each were cultured in a high-serum medium in the presence of 5 μM of 5-AZA for 24 hours. The myoblast cell preparations then had the 5-AZA washed off by switching the myoblast cell preparations each to a low-serum medium.
Myoblasts were seeded at 50,000 cells/well, at approximately 13,000 cells/cm^2, in a 12-well plate and maintained in the same proliferation medium as described in Example 1. The cells were allowed to proliferate at 37° C. and 5% CO2 until they reach up to 50-80% cell confluence by visual inspection. The proliferating myoblasts are then treated with 5 μM 5-AZA (Sigma-Aldrich) for 24 hours to induce DNA hypomethylation before differentiation. 5-AZA was obtained from a 10 uM stock solution diluted 1:2000. In a 2000 mL well, 1 mL of 5 μM 5-AZA was used. […]
The PCR amplification curves or the intensity of the amplified product in the agarose gel following electrophoresis may be used to quantify the levels of DNA methylation for a specific promoter region. […]
The subject of experiment [2] is proliferating CP and TD myoblast cultures. Nature of the experiment: Global DNA methylation, MethylFlash Methylated DNA Quantification Kit. The settings on record: 5 μM, 24 hours; FIG. 9A. It is filed as cell-based, human. The protocol: FIG. 9A illustrates global methylation levels of DNA in proliferating CP and TD myoblast cultures that were treated or non-treated with 5-AZA. Methylation levels were measured using a MethylFlash Methylated DNA Quantification Kit (EpiGentek, P-1034-96). Myoblasts were seeded into gelatin-coated 10 cm plates. Myoblast cell preparations from CP and TD study subjects were exposed to 5 μM of 5-AZA in proliferation medium. 5-AZA was introduced while the myoblast cell preparations were being developed in the high-serum medium, once the myoblast cell preparations were at about 60% of cell plate confluence by visual inspection. […] The myoblast cell preparations then had the 5-AZA washed off by switching the myoblast cell preparations each to fresh high-serum medium and further expanded to 90% of confluence. DNA was extracted from these cultures using the “DNA Purification from Cultured Cells” protocol as described in the Gentra Puregene DNA isolation kit (Qiagen, 158388).
In FIG. 9A, global methylation levels of DNA were investigated in proliferating CP and TD myoblast cultures that were treated or non-treated with 5-AZA. Methylation levels were measured using a MethylFlash Methylated DNA Quantification Kit (EpiGentek, P-1034-96). Myoblasts were seeded into gelatin-coated 10 cm plates. Myoblast cell preparations from CP and TD study subjects were exposed to 5 μM of 5-AZA in proliferation medium. […]

Regarding `Nc1ncn([C@@H]2O[C@H](CO)[C@@H](O)[C@H]2O)c(=O)n1` [5-AZA, 5-azacytidine], the “ITGB1D protein expression levels” value in the experiment on ITGB1D is “sufficient to restore ITGB1D protein expression levels”. Moreover, the “DNA methylation of the CpG island in the ITGB1 promoter region” value in experiment [1] is listed as “sufficient to cause hypomethylation of the CpG island in the ITGB1 promoter region”. Further, the “global methylation levels of DNA” value in experiment [2] was “caused global DNA hypomethylation in both CP and TD patients”.
